The target in the assay is T1, human TLR7 (Homo sapiens, UniProt Q9NYK1).
T1 construct: host or cells: HEK-Blue cells
T1 sequence (Q9NYK1 27-1049): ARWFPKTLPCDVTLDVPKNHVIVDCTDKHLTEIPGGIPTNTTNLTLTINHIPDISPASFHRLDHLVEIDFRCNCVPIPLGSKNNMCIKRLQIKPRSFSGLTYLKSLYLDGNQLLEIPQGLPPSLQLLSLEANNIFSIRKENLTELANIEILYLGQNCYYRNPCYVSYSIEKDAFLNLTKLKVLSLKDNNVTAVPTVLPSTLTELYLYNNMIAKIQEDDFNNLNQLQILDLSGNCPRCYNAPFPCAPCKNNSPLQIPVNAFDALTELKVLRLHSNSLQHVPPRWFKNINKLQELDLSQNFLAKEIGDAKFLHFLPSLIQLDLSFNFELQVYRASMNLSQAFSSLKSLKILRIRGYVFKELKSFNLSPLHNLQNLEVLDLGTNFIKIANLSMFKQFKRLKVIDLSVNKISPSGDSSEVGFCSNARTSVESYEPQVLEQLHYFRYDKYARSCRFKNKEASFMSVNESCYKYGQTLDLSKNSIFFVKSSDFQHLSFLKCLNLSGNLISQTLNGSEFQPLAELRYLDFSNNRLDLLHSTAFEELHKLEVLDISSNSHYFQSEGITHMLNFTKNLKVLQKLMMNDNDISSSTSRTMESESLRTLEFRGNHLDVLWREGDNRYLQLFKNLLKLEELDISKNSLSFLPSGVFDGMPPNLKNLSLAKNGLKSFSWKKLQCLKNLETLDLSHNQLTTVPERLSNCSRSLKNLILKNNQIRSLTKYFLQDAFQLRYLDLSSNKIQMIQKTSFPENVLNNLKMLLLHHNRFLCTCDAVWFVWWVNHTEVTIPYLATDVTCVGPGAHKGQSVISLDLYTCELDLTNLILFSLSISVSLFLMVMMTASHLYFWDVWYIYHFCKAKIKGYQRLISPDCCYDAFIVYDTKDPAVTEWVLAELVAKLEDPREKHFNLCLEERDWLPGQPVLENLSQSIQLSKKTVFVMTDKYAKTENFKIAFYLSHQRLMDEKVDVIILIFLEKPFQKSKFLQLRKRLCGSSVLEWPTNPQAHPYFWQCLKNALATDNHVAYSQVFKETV
The assay is described as follows: TLR7 inhibition reporter assay (HEK-Blue cells, SEAP reporter). Format: cell-based. The conditions noted are these: HEK-Blue cells overexpressing human TLR7, stimulated with gardiquimod 7.5 μM, 22 hour incubation. The procedure, abridged: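 Dose–response from 0.05 nM to 50 μM was run in HEK-Blue human TLR7, TLR8 and TLR9 reporter cells. After 30 min at room temperature with compound, ligand was added (TLR7 gardiquimod 7.5 μM; TLR8 R848 15.9 μM; TLR9 ODN2006 5 nM) and SEAP measured next day, at 22 h.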

Bounds are passed on as bounds.

In general, IC50 refers to the concentration that inhibits the measured activity by half. For `Cc1nc(-c2ccc(CN3C[C@@H]4CC[C@H]3CN4CCC(C)(C)O)cc2)cc2c1cc(-c1ccc(S(C)(=O)=O)cc1)n2C` [Example 61, 4-((1S,4S)-5-(4-(1,4-dimethyl-2-(4-(methylsulfonyl)phenyl)-1H-pyrrolo[3,2-c]pyridin-6-yl)benzyl)-2,5-diazabicyclo[2.2.2]octan-2-yl)-2-methylbutan-2-ol], half-maximal inhibition (IC50) was put at 3.1 µM.

`Cc1nc(-c2ccc(N3CCN(CCO)CC3)c(F)c2)cc2c1cc(-c1ccc(S(C)(=O)=O)cc1)n2C` [Example 69, 2-(4-(4-(1,4-dimethyl-2-(4-(methylsulfonyl)phenyl)-1H-pyrrolo[3,2-c]pyridin-6-yl)-2-fluorophenyl)piperazin-1-yl)ethan-1-ol] displayed an IC50 of 23.7 µM.

Regarding `Cc1nc(-c2ccc(N3CCN(C4CCOC4)CC3)c(F)c2)cc2c1cc(-c1ccc(S(C)(=O)=O)cc1)n2C` (stereo not shown) [Example 70, 6-(3-fluoro-4-(4-(tetrahydrofuran-3-yl)piperazin-1-yl)phenyl)-1,4-dimethyl-2-(4-(methylsulfonyl)phenyl)-1H-pyrrolo[3,2-c]pyridine], the IC50 was > 25 µM.

`COCCN1C2CCC1CN(c1ccc(-c3cc4c(cc(-c5ccc(S(C)(=O)=O)cc5)n4C)c(C)n3)cc1)C2` [Example 74, 6-(4-(8-(2-methoxyethyl)-3,8-diazabicyclo[3.2.1]octan-3-yl)phenyl)-1,4-dimethyl-2-(4-(methylsulfonyl)phenyl)-1H-pyrrolo[3,2-c]pyridine] had an IC50 of 1.6 µM.

For the compound `COCCN1C2CCC1CN(c1ccc(-c3cc4c(cc(-c5ccc(S(C)(=O)=O)cc5)n4C)c(C)n3)cc1F)C2` [Example 75, 6-(3-fluoro-4-(8-(2-methoxyethyl)-3,8-diazabicyclo[3.2.1]octan-3-yl)phenyl)-1,4-dimethyl-2-(4-(methylsulfonyl)phenyl)-1H-pyrrolo[3,2-c]pyridine], the IC50 came to 2.2 µM.

`Cc1nc(-c2ccc(N3CC4CCC(C3)N4CCCO)cc2)cc2c1cc(-c1ccc(S(C)(=O)=O)cc1)n2C` [Example 76, 3-(3-(4-(1,4-dimethyl-2-(4-(methylsulfonyl)phenyl)-1H-pyrrolo[3,2-c]pyridin-6-yl)phenyl)-3,8-diazabicyclo[3.2.1]octan-8-yl)propan-1-ol]: half-maximal inhibition (IC50) required 0.6 µM.

`Cc1nc(-c2ccc(N3CC4CCC(C3)N4CCCO)c(F)c2)cc2c1cc(-c1ccc(S(C)(=O)=O)cc1)n2C` [Example 77, 3-(3-(4-(1,4-dimethyl-2-(4-(methylsulfonyl)phenyl)-1H-pyrrolo[3,2-c]pyridin-6-yl)-2-fluorophenyl)-3,8-diazabicyclo[3.2.1]octan-8-yl)propan-1-ol] yielded an IC50 of 1.9 µM.

As to `COCCN1C2CCC1CN(c1cc(F)c(-c3cc4c(cc(-c5ccc(S(C)(=O)=O)cc5)n4C)c(C)n3)cc1F)C2` [Example 78, 6-(2,5-difluoro-4-(8-(2-methoxyethyl)-3,8-diazabicyclo[3.2.1]octan-3-yl)phenyl)-1,4-dimethyl-2-(4-(methylsulfonyl)phenyl)-1H-pyrrolo[3,2-c]pyridine], the IC50 worked out at 2.7 µM.

Compound `Cc1nc(-c2cc(F)c(N3CC4CCC(C3)N4CCCO)cc2F)cc2c1cc(-c1ccc(S(C)(=O)=O)cc1)n2C` [Example 79, 3-(3-(4-(1,4-dimethyl-2-(4-(methylsulfonyl)phenyl)-1H-pyrrolo[3,2-c]pyridin-6-yl)-2,5-difluorophenyl)-3,8-diazabicyclo[3.2.1]octan-8-yl) propan-1-ol] yielded an IC50 of 2.7 µM.

`Cc1nc(-c2ccc(N3CCN(CC(C)C)CC3)c(F)c2F)cc2c1cc(-c1ccc(S(C)(=O)=O)cc1)n2C` [Example 82, 6-(2,3-difluoro-4-(4-isobutylpiperazin-1-yl)phenyl)-1,4-dimethyl-2-(4-(methylsulfonyl)phenyl)-1H-pyrrolo[3,2-c]pyridine] came in with an IC50 of 6.4 µM.

`Cc1nc(-c2ccc(C3(O)CCN(C4CC4)CC3)cc2)cc2c1cc(-c1ccc(S(C)(=O)=O)cc1)n2C` [Example 87, 1-cyclopropyl-4-(4-(1,4-dimethyl-2-(4-(methylsulfonyl)phenyl)-1H-pyrrolo[3,2-c]pyridin-6-yl)phenyl)piperidin-4-ol] yielded an IC50 of 2.2 µM.

In turn, `Cc1nc(-c2ccc(C3(O)CCN(C(C)C)CC3)cc2)cc2c1cc(-c1ccc(S(C)(=O)=O)cc1)n2C` [Example 88, 4-(4-(1,4-dimethyl-2-(4-(methylsulfonyl)phenyl)-1H-pyrrolo[3,2-c]pyridin-6-yl)phenyl)-1-isopropylpiperidin-4-ol] displayed an IC50 of 6.5 µM.

Compound `Cc1nc(-c2ccc(N3CCN4CCCC4C3)c(F)c2F)cc2c1cc(-c1ccc(S(C)(=O)=O)cc1)n2C` (stereo not shown) [Example 99, 6-(2,3-difluoro-4-(hexahydropyrrolo[1,2-a]pyrazin-2(1H)-yl)phenyl)-1,4-dimethyl-2-(4-(methylsulfonyl)phenyl)-1H-pyrrolo[3,2-c]pyridine] displayed an IC50 of 1.5 µM.

`Cc1nc(-c2ccc(C3(O)CC4CCC(C3)N4C(C)C)c(F)c2)cc2c1cc(-c1ccc(S(C)(=O)=O)cc1)n2C` [Example 100, (1R,3r,5S)-3-(4-(1,4-dimethyl-2-(4-(methylsulfonyl)phenyl)-1H-pyrrolo[3,2-c]pyridin-6-yl)-2-fluorophenyl)-8-isopropyl-8-azabicyclo[3.2.1]octan-3-ol]: the IC50 stood at 7.1 µM.

In turn, `CCN1C2CCC1CC(O)(c1ccc(-c3cc4c(cc(-c5ccc(S(C)(=O)=O)cc5)n4C)c(C)n3)cc1F)C2` [Example 101, (1R,3r,5S)-3-(4-(1,4-dimethyl-2-(4-(methylsulfonyl)phenyl)-1H-pyrrolo[3,2-c]pyridin-6-yl)-2-fluorophenyl)-8-ethyl-8-azabicyclo[3.2.1]octan-3-ol] had an IC50 of 5.7 µM.

Turning to `Cc1nc(-c2ccc(C3(O)CC4CCC(C3)N4C)c(F)c2)cc2c1cc(-c1ccc(S(C)(=O)=O)cc1)n2C` [Example 102, (1R,3r,5S)-3-(4-(1,4-dimethyl-2-(4-(methylsulfonyl)phenyl)-1H-pyrrolo[3,2-c]pyridin-6-yl)-2-fluorophenyl)-8-methyl-8-azabicyclo[3.2.1]octan-3-ol], inhibition was half-maximal at 5.5 µM (IC50).

Regarding `Cc1nc(-c2ccc(C3(O)CCN(C(C)(C)C)CC3)c(F)c2)cc2c1cc(-c1ccc(S(C)(=O)=O)cc1)n2C` [Example 104, 1-(tert-butyl)-4-(4-(1,4-dimethyl-2-(4-(methylsulfonyl)phenyl)-1H-pyrrolo[3,2-c]pyridin-6-yl)-2-fluorophenyl)piperidin-4-ol], the IC50 worked out at 2.2 µM. This IC50 lies about 2.5-fold lower than the previous one.

The compound `Cc1nc(-c2ccc([C@@]3(O)CCN(C(C)C)C(C)(C)C3)c(F)c2)cc2c1cc(-c1ccc(S(C)(=O)=O)cc1)n2C` [Example 105, (R)-4-(4-(1,4-dimethyl-2-(4-(methylsulfonyl)phenyl)-1H-pyrrolo[3,2-c]pyridin-6-yl)-2-fluorophenyl)-1-isopropyl-2,2-dimethylpiperidin-4-ol] displayed an IC50 of 1.1 µM.

For `Cc1nc(-c2ccc([C@]3(O)CCN(C(C)C)C(C)(C)C3)c(F)c2)cc2c1cc(-c1ccc(S(C)(=O)=O)cc1)n2C` [Example 106, (S)-4-(4-(1,4-dimethyl-2-(4-(methylsulfonyl)phenyl)-1H-pyrrolo[3,2-c]pyridin-6-yl)-2-fluorophenyl)-1-isopropyl-2,2-dimethylpiperidin-4-ol], it took 1.5 µM to reach half-maximal inhibition (IC50).
